Data taken from ChEMBL document CHEMBL3885881, “DrugMatrix”.

Species: Rattus norvegicus
Experiment: DrugMatrix - Regimen: Daily Repeat
Type: toxicity, organism-based, Sprague-Dawley
Parameters: regimen Daily Repeat, gender Male, age 6-8 weeks
Conditions: in vivo, po, route oral GAVAGE, vehicle .5 % CMC; for ABSOLUTE BASOPHIL / ABSOLUTE EOSINOPHIL / ABSOLUTE LYMPHOCYTE / ABSOLUTE MONOCYTE / ABSOLUTE SEGMENTED NEUTROPHIL / BASOPHIL / EOSINOPHIL / ERYTHROCYTE COUNT / HEMATOCRIT / HEMOGLOBIN / LEUKOCYTE COUNT / LYMPHOCYTE / MEAN CORPUSCULAR HEMOGLOBIN / MEAN CORPUSCULAR HEMOGLOBIN CONCENTRATION / MEAN CORPUSCULAR VOLUME / MONOCYTE / NEUTROPHIL / NUCLEATED RED BLOOD CELLS / PLATELET COUNT: tissue Blood; for ALANINE AMINOTRANSFERASE / ALBUMIN / ALKALINE PHOSPHATASE / ASPARTATE AMINOTRANSFERASE / BLOOD UREA NITROGEN / CARBON DIOXIDE / CHLORIDE / CHOLESTEROL / CREATINE PHOSPHOKINASE / CREATININE / GLUCOSE / LACTATE DEHYDROGENASE / LIPASE / PHOSPHORUS / POTASSIUM / SODIUM / TOTAL BILIRUBIN / TOTAL PROTEIN / URIC ACID: tissue Plasma
[1] = 0 mg/kg, 72 h, dose level Control, time 3 day
[2] = 0 mg/kg, 120 h, dose level Control, time 5 day
[3] = 1 mg/kg, 72 h, dose level Low, time 3 day
[4] = 1 mg/kg, 120 h, dose level Low, time 5 day

SMILES: OC(CCN1CCCCC1)(c1ccccc1)C1CCCCC1 (configuration not stated) [TRIHEXYPHENIDYL]
- ABSOLUTE BASOPHIL [1]: 0 CELLS/uL
- ABSOLUTE EOSINOPHIL [1]: 0 CELLS/uL
- ABSOLUTE LYMPHOCYTE [1]: 10913.67 CELLS/uL
- ABSOLUTE MONOCYTE [1]: 85.33 CELLS/uL
- ABSOLUTE SEGMENTED NEUTROPHIL [1]: 1401 CELLS/uL
- BASOPHIL [1]: 0%
- EOSINOPHIL [1]: 0%
- ERYTHROCYTE COUNT [1]: 5.57 x10E6/uL
- HEMATOCRIT [1]: 35.58%
- HEMOGLOBIN [1]: 13.8 G/DL
- LEUKOCYTE COUNT [1]: 12.4 x10E3/uL
- LYMPHOCYTE [1]: 88%
- MEAN CORPUSCULAR HEMOGLOBIN [1]: 24.78 pg
- MEAN CORPUSCULAR HEMOGLOBIN CONCENTRATION [1]: 38.82 G/DL
- MEAN CORPUSCULAR VOLUME [1]: 63.88 fL
- MONOCYTE [1]: 0.67%
- NEUTROPHIL [1]: 11.33%
- NUCLEATED RED BLOOD CELLS [1]: 0 /100WBC
- PLATELET COUNT [1]: 1162.33 x10E3/uL
- ALANINE AMINOTRANSFERASE [1]: 53 u/L
- ALBUMIN [1]: 4.17 G/DL
- ALKALINE PHOSPHATASE [1]: 374.5 u/L
- ASPARTATE AMINOTRANSFERASE [1]: 89.5 u/L
- BLOOD UREA NITROGEN [1]: 16.33 mg/dL
- CARBON DIOXIDE [1]: 29.17 mmol/L
- CHLORIDE [1]: 97.67 MEQ/L
- CHOLESTEROL [1]: 77 mg/dL
- CREATINE PHOSPHOKINASE [1]: 464.83 u/L
- CREATININE [1]: 0.14 mg/dL
- GLUCOSE [1]: 164 mg/dL
- LACTATE DEHYDROGENASE [1]: 155.5 u/L
- LIPASE [1]: 9.17 u/L
- PHOSPHORUS [1]: 12.4 mg/dL
- POTASSIUM [1]: 6.91 MEQ/L
- SODIUM [1]: 141.47 MEQ/L
- TOTAL BILIRUBIN [1]: 0.2 mg/dL
- TOTAL PROTEIN [1]: 5.95 G/DL
- URIC ACID [1]: 1.72 mg/dL
- ABSOLUTE BASOPHIL [2]: 0 CELLS/uL
- ABSOLUTE EOSINOPHIL [2]: 20.5 CELLS/uL
- ABSOLUTE LYMPHOCYTE [2]: 13871.67 CELLS/uL
- ABSOLUTE MONOCYTE [2]: 60.5 CELLS/uL
- ABSOLUTE SEGMENTED NEUTROPHIL [2]: 980.67 CELLS/uL
- BASOPHIL [2]: 0%
- EOSINOPHIL [2]: 0.17%
- ERYTHROCYTE COUNT [2]: 5.65 x10E6/uL
- HEMATOCRIT [2]: 35.63%
- HEMOGLOBIN [2]: 14.08 G/DL
- LEUKOCYTE COUNT [2]: 14.93 x10E3/uL
- LYMPHOCYTE [2]: 92.83%
- MEAN CORPUSCULAR HEMOGLOBIN [2]: 24.97 pg
- MEAN CORPUSCULAR HEMOGLOBIN CONCENTRATION [2]: 39.55 G/DL
- MEAN CORPUSCULAR VOLUME [2]: 63.13 fL
- MONOCYTE [2]: 0.33%
- NEUTROPHIL [2]: 6.67%
- NUCLEATED RED BLOOD CELLS [2]: 0 /100WBC
- PLATELET COUNT [2]: 1248.17 x10E3/uL
- ALANINE AMINOTRANSFERASE [2]: 45.17 u/L
- ALBUMIN [2]: 4.27 G/DL
- ALKALINE PHOSPHATASE [2]: 405.67 u/L
- ASPARTATE AMINOTRANSFERASE [2]: 74.17 u/L
- BLOOD UREA NITROGEN [2]: 15.5 mg/dL
- CARBON DIOXIDE [2]: 30.17 mmol/L
- CHLORIDE [2]: 100.67 MEQ/L
- CHOLESTEROL [2]: 57 mg/dL
- CREATINE PHOSPHOKINASE [2]: 239.5 u/L
- CREATININE [2]: 0.17 mg/dL
- GLUCOSE [2]: 165.67 mg/dL
- LACTATE DEHYDROGENASE [2]: 90.5 u/L
- LIPASE [2]: 8.83 u/L
- PHOSPHORUS [2]: 12.32 mg/dL
- POTASSIUM [2]: 7.03 MEQ/L
- SODIUM [2]: 142.65 MEQ/L
- TOTAL BILIRUBIN [2]: 0.18 mg/dL
- TOTAL PROTEIN [2]: 6.03 G/DL
- URIC ACID [2]: 1.98 mg/dL
- ABSOLUTE BASOPHIL [3]: 0 CELLS/uL
- ABSOLUTE EOSINOPHIL [3]: 0 CELLS/uL
- ABSOLUTE LYMPHOCYTE [3]: 14884.67 CELLS/uL
- ABSOLUTE MONOCYTE [3]: 0 CELLS/uL
- ABSOLUTE SEGMENTED NEUTROPHIL [3]: 848.67 CELLS/uL
- BASOPHIL [3]: 0%
- EOSINOPHIL [3]: 0%
- ERYTHROCYTE COUNT [3]: 5.35 x10E6/uL
- HEMATOCRIT [3]: 35.77%
- HEMOGLOBIN [3]: 14.27 G/DL
- LEUKOCYTE COUNT [3]: 15.73 x10E3/uL
- LYMPHOCYTE [3]: 94.33%
- MEAN CORPUSCULAR HEMOGLOBIN [3]: 26.7 pg
- MEAN CORPUSCULAR HEMOGLOBIN CONCENTRATION [3]: 39.87 G/DL
- MEAN CORPUSCULAR VOLUME [3]: 66.97 fL
- MONOCYTE [3]: 0%
- NEUTROPHIL [3]: 5.67%
- NUCLEATED RED BLOOD CELLS [3]: 0 /100WBC
- PLATELET COUNT [3]: 1285.67 x10E3/uL
- ALANINE AMINOTRANSFERASE [3]: 51.33 u/L
- ALBUMIN [3]: 4.33 G/DL
- ALKALINE PHOSPHATASE [3]: 449.67 u/L
- ASPARTATE AMINOTRANSFERASE [3]: 84 u/L
- BLOOD UREA NITROGEN [3]: 18.67 mg/dL
- CARBON DIOXIDE [3]: 27.33 mmol/L
- CHLORIDE [3]: 99.67 MEQ/L
- CHOLESTEROL [3]: 76 mg/dL
- CREATINE PHOSPHOKINASE [3]: 344.67 u/L
- CREATININE [3]: 0.14 mg/dL
- GLUCOSE [3]: 149.33 mg/dL
- LACTATE DEHYDROGENASE [3]: 254.67 u/L
- LIPASE [3]: 9.33 u/L
- PHOSPHORUS [3]: 13.83 mg/dL
- POTASSIUM [3]: 6.89 MEQ/L
- SODIUM [3]: 145.2 MEQ/L
- TOTAL BILIRUBIN [3]: 0.17 mg/dL
- TOTAL PROTEIN [3]: 6.23 G/DL
- URIC ACID [3]: 1.77 mg/dL
- ABSOLUTE BASOPHIL [4]: 0 CELLS/uL
- ABSOLUTE EOSINOPHIL [4]: 0 CELLS/uL
- ABSOLUTE LYMPHOCYTE [4]: 16182.67 CELLS/uL
- ABSOLUTE MONOCYTE [4]: 124 CELLS/uL
- ABSOLUTE SEGMENTED NEUTROPHIL [4]: 1360 CELLS/uL
- BASOPHIL [4]: 0%
- EOSINOPHIL [4]: 0%
- ERYTHROCYTE COUNT [4]: 5.66 x10E6/uL
- HEMATOCRIT [4]: 35.77%
- HEMOGLOBIN [4]: 14.3 G/DL
- LEUKOCYTE COUNT [4]: 17.67 x10E3/uL
- LYMPHOCYTE [4]: 91.67%
- MEAN CORPUSCULAR HEMOGLOBIN [4]: 25.23 pg
- MEAN CORPUSCULAR HEMOGLOBIN CONCENTRATION [4]: 40 G/DL
- MEAN CORPUSCULAR VOLUME [4]: 63.13 fL
- MONOCYTE [4]: 0.67%
- NEUTROPHIL [4]: 7.67%
- NUCLEATED RED BLOOD CELLS [4]: 0.33 /100WBC
- PLATELET COUNT [4]: 1182.33 x10E3/uL
- ALANINE AMINOTRANSFERASE [4]: 45.67 u/L
- ALBUMIN [4]: 4.2 G/DL
- ALKALINE PHOSPHATASE [4]: 394 u/L
- ASPARTATE AMINOTRANSFERASE [4]: 78.67 u/L
- BLOOD UREA NITROGEN [4]: 15.67 mg/dL
- CARBON DIOXIDE [4]: 26.67 mmol/L
- CHLORIDE [4]: 101 MEQ/L
- CHOLESTEROL [4]: 73.33 mg/dL
- CREATINE PHOSPHOKINASE [4]: 379.33 u/L
- CREATININE [4]: 0.13 mg/dL
- GLUCOSE [4]: 139.67 mg/dL
- LACTATE DEHYDROGENASE [4]: 370.67 u/L
- LIPASE [4]: 9 u/L
- PHOSPHORUS [4]: 12.93 mg/dL
- POTASSIUM [4]: 6.84 MEQ/L
- SODIUM [4]: 143 MEQ/L
- TOTAL BILIRUBIN [4]: 0.17 mg/dL
- TOTAL PROTEIN [4]: 5.9 G/DL
- URIC ACID [4]: 1.3 mg/dL
